# Patent publication US20240082238A1, “COMPOSITIONS AND METHODS FOR TREATING CANCER” (UNIVERSITY OF IOWA RESEARCH FOUNDATION, priority 2021, published 2024)
# Columns and labels:
# caspase 9 = assay: Caspase multiplex activity assay, caspase 9; assay type: cell-based, human; settings: 24 h
# Experimental: (§1) Apoptosis and caspase activity. The expression of caspase 3, 8, and 9 was measured using Multiplex Activity Assay Fluorometric Kit (Cat. No. ab219915, Abcam). Briefly, Hec50co cells were plated in 96-well plates at a density of 3000 per well in 100 μL of the complete medium and incubated for 24 hours. After incubation, the medium was removed, and different concentrations either in single or combination of treatments were added (PTX 5 and 10 nM; CIP2b 10, 25, and 50 μM). Cells with treatments were incubated for 24 or 72 hours. Then, the caspase kit reagents were added to the cells and incubated at room temperature for 60 minutes. Fluorescence intensity (at excitation/emission values of 535/620 nm, 490/525 nm, and 370/450 nm for caspase 3, 8, and 9, respectively) was then measured using a SpectraMax M5 microplate reader (Molecular Devices).
# caspase 3 = assay: Caspase multiplex activity assay, caspase 3; assay type: cell-based, human; settings: 72 h; PTX 5, 10 nM; CIP2b 10, 25, 50 μM
# Experimental: as §1
# human Topo I = target: T1, human Topo I (Homo sapiens, UniProt P11387); assay: Topoisomerase I inhibition assay (plasmid-based); assay type: biochemical; settings: drug final concentration 100 μM
# T1 construct: purchased TopoGEN Inc. TG1015-1A
# T1 sequence (P11387 1-765): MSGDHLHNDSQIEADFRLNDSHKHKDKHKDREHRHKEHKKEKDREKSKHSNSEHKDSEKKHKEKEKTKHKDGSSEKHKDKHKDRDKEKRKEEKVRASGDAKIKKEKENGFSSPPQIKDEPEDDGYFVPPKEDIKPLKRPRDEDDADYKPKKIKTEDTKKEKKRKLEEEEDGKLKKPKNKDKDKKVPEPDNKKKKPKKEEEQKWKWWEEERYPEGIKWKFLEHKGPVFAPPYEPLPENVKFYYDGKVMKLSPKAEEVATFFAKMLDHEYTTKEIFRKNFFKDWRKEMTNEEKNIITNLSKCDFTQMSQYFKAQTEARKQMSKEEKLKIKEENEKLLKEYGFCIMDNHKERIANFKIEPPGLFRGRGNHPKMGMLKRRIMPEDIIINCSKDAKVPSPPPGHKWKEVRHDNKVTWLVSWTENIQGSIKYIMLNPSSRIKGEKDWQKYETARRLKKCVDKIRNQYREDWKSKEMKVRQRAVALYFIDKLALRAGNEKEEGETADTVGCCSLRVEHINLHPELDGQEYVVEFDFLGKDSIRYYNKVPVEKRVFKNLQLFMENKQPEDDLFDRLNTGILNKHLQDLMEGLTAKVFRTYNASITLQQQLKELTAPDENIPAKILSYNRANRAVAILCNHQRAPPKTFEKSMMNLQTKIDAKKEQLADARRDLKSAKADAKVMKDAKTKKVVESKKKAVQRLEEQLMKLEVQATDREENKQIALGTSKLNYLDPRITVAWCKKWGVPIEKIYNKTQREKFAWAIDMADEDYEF
# Experimental: Topoisomerase I inhibition assay. A plasmid-based Topo I assay (Cat. No. TG1015-1A, TopoGEN Inc., Buena Vista, CO) was performed according to the manufacturer's instructions. Briefly, 1 μL of the test compounds (PTX, CIP, CIP2b, or CAM) at a concentration of 2 mM, was mixed with 2 μL of the reaction buffer (10× tris-glycine-SDS), and deionized water was added to make 18 μL solution. This was followed by adding 1 μL of supercoiled DNA (SC DNA) and 1 μL of human Topo I (10 U/μL) (drug final concentration was 100 μM). Also, SC DNA±Topo I was used as a control (i.e., not containing drugs). In addition, relaxed DNA was added as another control in this assay. Samples were incubated on a heating block (Isotemp 125 D Digital Heat Block, ThermoFisher Scientific) set at 37° C. for 30 minutes. Then, the reaction was stopped by adding a 5× stop buffer. Samples were then loaded directly into the wells of a 1% agarose gel (Research Products International, Mount Prospect, IL). The gel was run at 150 V until the dye front had traveled approximately 5 cm (run time was approximately 2 hours). The gel was then stained with 1 μg/mL ethidium bromide in deionized water for 15 minutes, and this was followed by de-staining (washing) with deionized water for 30 min before imaging. The image was then taken using an Invitrogen iBright CL 1500 Imaging System (ThermoFisher Scientific). The intensity of the final bands in the gel was quantified using ImageJ, and the results are expressed as the percentage of Topo I inhibition.
# LLC-PK1-WT cells = assay: Cytotoxicity assay (MTS), LLC-PK1-WT cells; assay type: cell-based, porcine; settings: Sus scrofa; PTX alone, 72 h
# Experimental: Cytotoxicity assay. Hec50co cells were seeded at 1500 cells per well in 96-well plates for 24 h in a complete medium. Later, the medium was removed and PTX, CIP2b, or CIP (all dissolved in DMSO and diluted in complete medium) were added to cells as either monotherapies or in combinations, and the plates were incubated for 72 hours. Then, the complete medium was removed and MTS reagent in the complete medium was added to wells, and the plates were incubated for 1-4 hours according to the manufacturer's protocol. Finally, the absorbance was recorded at 490 nm using a Spectra Max plus 384 Microplate Spectrophotometer (Molecular Devices, Sunnyvale, CA). Percentage cell viability was expressed as the average absorbance of the test group relative to that of the control group (untreated cells). The concentration that inhibits proliferation of 50% of cells compared to control (IC50) was calculated using GraphPad Prism (La Jolla, CA). Synergism was detected following the Chou-Talalay method (CI<1 indicates synergism) (Chou T C. Cancer research. 2010; 70(2):440-6, doi: 10.1158/0008-5472.CAN-09-1947) using CompuSyn software (Ver. 1.0).
# P-gp efflux transporter. Overexpression of the MDR1 gene, reflected in the abundance of the P-gp efflux pump, is one of the major reasons for PTX chemoresistance in cancer. In this study, LLC-PK1-WT and LLC-PK1-MDR1 cell lines were used. […]
compound,measurement,setting,value
"CC(=O)O[C@H]1C(=O)[C@@]2(C)[C@H]([C@H](OC(=O)c3ccccc3)[C@]3(O)C[C@H](OC(=O)[C@H](O)[C@@H](NC(=O)c4ccccc4)c4ccccc4)C(C)=C1C3(C)C)[C@]1(OC(C)=O)CO[C@@H]1C[C@@H]2O [PTX, paclitaxel]",expression of caspase 9 vs untreated,caspase 9; 5 nM PTX,not statistically different from untreated cells
same,level of caspase 9 expression vs untreated,caspase 9; 10 nM PTX,significantly higher
same,levels of caspase 3,caspase 3,high levels of caspase 3
same,Topo I inhibitory activity (gel),human Topo I,neither PTX nor CIP did inhibit Topo I
same,IC50,LLC-PK1-WT cells,0.0213 µM
